In publication PMC3462495 (2012):

Biological target: p90 ribosomal S6 kinase 2 (RSK2), N-terminal kinase domain (mRSK2NTKD) (Mus musculus, UniProt P18654)
Assay: ITC
Format: binding

Chain of p90 ribosomal S6 kinase 2 (RSK2), N-terminal kinase domain (mRSK2NTKD) (P18654 45-346): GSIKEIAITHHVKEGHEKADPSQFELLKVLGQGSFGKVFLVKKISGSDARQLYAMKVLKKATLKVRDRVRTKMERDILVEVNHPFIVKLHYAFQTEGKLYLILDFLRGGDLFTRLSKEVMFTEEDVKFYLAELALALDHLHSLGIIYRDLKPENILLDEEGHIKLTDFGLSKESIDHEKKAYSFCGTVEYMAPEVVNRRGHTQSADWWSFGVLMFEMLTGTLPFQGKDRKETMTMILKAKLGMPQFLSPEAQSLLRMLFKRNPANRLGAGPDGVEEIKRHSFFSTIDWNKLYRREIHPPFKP

In the case of `Nc1ncnc2c1ncn2[C@@H]1O[C@H](COP(=O)(O)OP(=O)(O)NP(=O)(O)O)[C@@H](O)[C@H]1O` [AMP-PNP], the Kd is reported as 50 µM.
